Assay results published in patent US12227769B2 (priority 2018, dated 2025).

Legend:
[1] = system: Rous sarcoma virus, HIV-1, RSV, parainfluenza virus type 3, VSV, measles virus, and reovirus; conditions: shown previously [52, 53, 59]; cited from earlier work
[2] = system: rgRSV or rgRSV-G1857A-G1853A; format: cell-based, RSV A2 strain; conditions: 15 μg/ml Cc3Ado; rgRSV and rgRSV-G1853A-G1857A-infected cells; day 3
[3] = system: rgRSV or rgRSV-G1857A-G1853A; format: cell-based, RSV A2 strain; conditions: 50 μg/ml Cc3Ado, day 3
RIG-I = format: cell-based, human
[4] = target: T1, Recombinant human RIG-I protein (Homo sapiens, UniProt O95786); experiment: Limited trypsin digestion of RIG-I:RNA complexes; format: biochemical; conditions: 2 h trypsin digestion, 2 mM AMP-PNP
T1 construct: trypsin treatment of the full-length RIG-I protein (approximately 110 kDa) yielded a 55-kDa RIG-I fragment; Flag; made in house; host or cells: HEK-293T
T1 sequence (O95786 1-925): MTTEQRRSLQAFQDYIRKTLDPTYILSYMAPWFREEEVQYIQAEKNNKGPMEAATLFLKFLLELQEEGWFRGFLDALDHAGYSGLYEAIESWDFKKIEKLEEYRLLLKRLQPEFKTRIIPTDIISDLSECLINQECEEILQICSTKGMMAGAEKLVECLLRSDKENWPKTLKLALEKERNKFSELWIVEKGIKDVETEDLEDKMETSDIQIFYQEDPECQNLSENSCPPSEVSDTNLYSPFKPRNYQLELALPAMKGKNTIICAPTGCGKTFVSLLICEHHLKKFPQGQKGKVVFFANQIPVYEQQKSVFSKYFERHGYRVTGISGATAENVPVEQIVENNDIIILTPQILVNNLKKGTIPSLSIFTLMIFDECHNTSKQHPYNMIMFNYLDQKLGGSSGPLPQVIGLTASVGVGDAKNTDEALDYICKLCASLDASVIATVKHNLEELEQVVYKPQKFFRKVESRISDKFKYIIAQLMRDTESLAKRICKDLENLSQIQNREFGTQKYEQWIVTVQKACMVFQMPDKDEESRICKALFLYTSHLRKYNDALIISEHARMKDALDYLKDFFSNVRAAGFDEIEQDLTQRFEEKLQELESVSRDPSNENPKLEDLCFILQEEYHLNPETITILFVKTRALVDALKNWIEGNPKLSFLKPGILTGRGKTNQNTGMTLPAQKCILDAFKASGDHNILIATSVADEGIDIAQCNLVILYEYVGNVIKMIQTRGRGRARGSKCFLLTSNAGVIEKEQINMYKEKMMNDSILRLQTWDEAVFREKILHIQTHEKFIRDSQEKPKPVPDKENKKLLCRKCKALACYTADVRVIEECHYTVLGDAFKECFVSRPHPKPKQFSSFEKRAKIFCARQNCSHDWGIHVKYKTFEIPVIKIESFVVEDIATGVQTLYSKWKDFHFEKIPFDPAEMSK

Nc1nccc2c1ncn2[C@@H]1O[C@H](CO)[C@@H](O)[C@H]1O [3-deazaadenosine]
inhibition of virus replication [1]: capable of inhibiting the replication of diverse viruses

Carbocyclic 3-deazaadenosine [Cc3Ado]
effect on RSV spread (GFP) in HEp-2 cells [2]: inhibited rgRSV spread over 3 days
effect on GFP signal in rgRSV-G1853A-G1857A-infected HAE cells [3]: the GFP signal was further reduced

Poly(I.C)
expression of RIG-I in RNA-transfected cells (RIG-I): activated RIG-I expression in a dose-dependent manner
trypsin-resistant 80-kDa RIG-I fragment [4]: yielded an 80-kDa fragment
